# Assay results from ChEMBL document CHEMBL4038280, “Synthesis and human/bacterial carbonic anhydrase inhibition with a series of sulfonamides incorporating phthalimido moieties” (Bioorg Med Chem, 2017).
# What was measured:
# [1] = Inhibition of Vibrio cholerae alpha carbonic anhydrase preincubated for 15 mins by stopped flow CO2 hydration assay
# [2] = Inhibition of Vibrio cholerae beta carbonic anhydrase preincubated for 15 mins by stopped flow CO2 hydration assay
SMILES,Ki [1],Ki [2]
Cc1ccc(NC(=O)c2ccc3c(c2)C(=O)N(c2ccc(S(N)(=O)=O)cc2)C3=O)c(C(=O)O)c1,1.68 µM,5.42 µM
NS(=O)(=O)c1ccc(CCN2C(=O)c3ccc(C(=O)Nc4ccc(I)cc4C(=O)O)cc3C2=O)cc1,2.58 µM,6.75 µM
COc1cc(NC(=O)c2ccc3c(c2)C(=O)N(CCc2ccc(S(N)(=O)=O)cc2)C3=O)c(C(=O)O)cc1OC,3.19 µM,8.58 µM
NS(=O)(=O)c1ccc(CN2C(=O)c3ccc(C(=O)Nc4ccc(I)cc4C(=O)O)cc3C2=O)cc1,1.33 µM,6.78 µM
NS(=O)(=O)c1ccc(N2C(=O)c3ccc(C(=O)Nc4ccc(I)cc4C(=O)O)cc3C2=O)cc1,0.281 µM,5.4 µM
COc1cc(NC(=O)c2ccc3c(c2)C(=O)N(Cc2ccc(S(N)(=O)=O)cc2)C3=O)c(C(=O)O)cc1OC,2.93 µM,9.26 µM
Cc1ccc(NC(=O)c2ccc3c(c2)C(=O)N(Cc2ccc(S(N)(=O)=O)cc2)C3=O)c(C(=O)O)c1,2.59 µM,8.2 µM
COc1cc(NC(=O)c2ccc3c(c2)C(=O)N(c2ccc(S(N)(=O)=O)cc2)C3=O)c(C(=O)O)cc1OC,2.84 µM,7.97 µM
Cc1ccc(NC(=O)c2ccc3c(c2)C(=O)N(CCc2ccc(S(N)(=O)=O)cc2)C3=O)c(C(=O)O)c1,1.96 µM,9.26 µM
